Source: US6539252B1, “Method and apparatus for the treatment of blood borne pathogens such as immunodeficiency virus” (priority 1996, dated 2003)

Columns and labels:
[1] = calculated silver content in blood serum during treatment; assay type: in vivo, human; conditions: by Faraday's law
Source text: (§1) To balance the need for large numbers of silver ions with the need to keep the amount of silver within safer ranges for humans, the power supply 110 supplies two and one-half microamps of current for twelve minutes at the beginning of treatment. This produces 1.56×10(13) ions of silver per second. During the twelve minutes (i.e., seven-hundred twenty seconds) that the power supply 110 supplies two and one-half microamps of current, 0.0018 Coulombs enters the bloodstream (i.e., seven-hundred and twenty seconds multiplied by two and one-half microamps). Under Faraday's law, one mole of silver ions equals 96485 Coulombs. Further, one mole of silver ions weighs 107.87 grams. Thus, in the initial twelve minute operating period, nearly two micrograms (1.94 micrograms) of silver ions are introduced into the bloodstream.
After the initial twelve minute operating period, the low intensity direct current provided by power supply 110 is reduced to one-hundred twenty five nanoamps. This causes the production of silver ions to be produced at a rate of seven-hundred seventy-four billion ions per second. Under a preferred embodiment of the present invention, this level of electric current is maintained for a period of seventy-one hours and forty-eight minutes. […]

bacterial pathogens = conditions: silver ions generated in small quantities in the blood stream; cited from earlier work
HIV virus = assay: treatment of HIV infected human subjects with electrically generated silver ions; viral load by RNA PCR quantification, T4 cell count; assay type: in vivo
Source text: The present invention operates by providing a low intensity direct current to electrode 35. By placing the electrode pad 98 on the surface of the patient in the vicinity of electrode 35, the low intensity direct current will cause the electrode 35 to act as an anode, thereby releasing metal ions into the bloodstream of the patient. These positively charged metal ions are attracted to the negative polarity of the virus, thereby destabilizing it, as discussed above. […] The use of such a large blood vessel is preferred because metal ions such as the preferred silver ion have a half life of approximately seven seconds. The device as will be seen below, creates an average output of four-hundred billion silver cations per second. With an average blood volume of four liters passing by the electrode 35 approximately twice per minute, the probability of a virus passing by the electrode 35 and being bonded to a metal ion increases when the volume of blood available to carry the virus is higher.
as §1
After the initial twelve minute operating period, the low intensity direct current provided by power supply 110 is reduced to one-hundred twenty five nanoamps. This causes the production of silver ions to be produced at a rate of seven-hundred seventy-four billion ions per second. Under a preferred embodiment of the present invention, this level of electric current is maintained for a period of seventy-one hours and forty-eight minutes. During this time (i.e., 258,480 seconds) that the power supply 110 supplies one-hundred twenty-five nanoamps of current, […] enters the bloodstream (i.e., 258,480 seconds multiplied by one-hundred twenty-five nanoamps). Under Faraday's law, one mole of silver ions equals 96485 Coulombs. Further, one mole of silver ions weighs 107.87 grams. Thus, during this entire period, only approximately 36.1 micrograms of silver ions are introduced into the bloodstream. Thus, in the entire seventy-two hour treatment, only 38.1 micrograms of silver have been introduced into the patient's bloodstream.
In a first example, the human patient had 2,165,823 copies of the HIV virus per milliliter of blood by the RNA PCR quantification test method. In addition, this patient's T4 cell (Helper) count was at 18. This particular subject was experiencing serious kidney malfunction prior to treatment. Twenty-four hours after treatment, this patient's viral load was reduced to 1,336,817 copies of the HIV virus per milliliter of blood while the T4 cell count was 11. Because of this patient's kidney malfunction, it was suspected that most of the viral copies detected during the RNA PCR quantization test had been denatured but had not yet been removed from the patient by the kidneys. Thus, one month after treatment, the viral load was measured again and found to be reduced to 621,215 copies of the HIV virus per milliliter of blood.
Thus, the electrode 35 was placed in the subclavian vein. This patient was subjected to twelve minutes of treatment at 2.5 microamps and then only forty-seven hours and forty-eight minutes of treatment at one-hundred twenty-five nanoamps. […]

[2] = human blood serum; cited from earlier work
[3] = tested on: eukaryotic microorganisms; conditions: levels as low as; cited from earlier work
[4] = tested on: feline immunodeficiency virus (FIV); assay: treatment of a cat infected with feline immunodeficiency virus; assay type: in vivo; conditions: seven year old male cat with FIV; about four micrograms silver in 24 min, then one-half microgram per hour for 90 min
Source text: The methods of this invention have also been successfully tested on a different virus and a different host: namely, a cat infected with feline immunodeficiency virus (“FIV”). A seven year old male house cat weighing ten pounds and ten and three-quarter ounces had “heavy third eyelid”, some hair loss, eleven bite marks along his back and rump, and a wound to the top of the ear, all indicative of acute disease. The cat was anesthetized with ketamine, a catheter was placed in the neck, and the negative electrode was placed on the underchest. Approximately four micrograms of silver was delivered in twenty-four minutes, followed by one-half a microgram of silver per hour for ninety minutes.

mammalian cells = conditions: at less than twenty parts per billion in the blood stream; cited from earlier work

[Ag+] [silver ions]
silver content in the blood serum ([1]; entire seventy-two hour treatment (38.1 micrograms silver)): less than nine
silver content in the blood serum ([1]; initial twelve minutes at two and one-half microamps (1.94 micrograms silver)): less than five
quantity in the blood stream effective in destroying bacterial pathogens (bacterial pathogens): less than twenty
clinical outcome after treatment (HIV virus; first human patient): immediately felt improved health, was able to eat solid food, and experienced a dramatic increase in quality of life
viral load (HIV virus; first human patient, kidney malfunction, baseline 2,165,823, twenty-four hours after treatment, RNA PCR): 1,336,817 copies of the HIV virus per milliliter of blood
T4 cell count (HIV virus; first human patient, baseline 18, twenty-four hours after treatment): 11
viral load (HIV virus; first human patient, baseline 2,165,823, one month after treatment): 621,215 copies of the HIV virus per milliliter of blood
clinical outcome after treatment (HIV virus; second human subject): immediately felt improved health and was able to eat solid food
viral load (HIV virus; second human subject, electrode in subclavian vein, 12 min at 2.5 microamps then 47 h 48 min at 125 nanoamps, baseline 1,814,466, forty-eight hours after treatment, RNA PCR): 394,972 copies of the HIV virus per milliliter of blood
T4 cell count (HIV virus; second human subject, baseline 17, forty-eight hours after treatment): 18
clinical outcome after treatment (HIV virus; third human subject, also on AZT): immediately felt improved health, was able to eat solid food, and experienced a dramatic increase in quality of life
T4 cell count (HIV virus; third human subject, also on AZT, baseline 5, twenty-four hours after treatment): 6
viral load (HIV virus; third human subject, also undergoing treatment with AZT, 12 min at 2.5 microamps then 70 h 18 min at 125 nanoamps, baseline 693,832, twenty-four hours after treatment, RNA PCR): 634 copies of the HIV virus per milliliter of blood
silver in the blood serum humans can withstand without a toxic reaction [2]: thirty to eighty
level toxic to eukaryotic microorganisms [3]: one to five
clinical outcome the next morning [4]: returned to normal activity and appetite
toxicity to mammalian cells (mammalian cells): totally nontoxic
